Turning to `Cc1ccc(N2CCN(CC[C@H]3CC[C@H](NC(=O)C4=CCCC4)CC3)CC2)cc1Cl` [Example 491, Cyclopent-1-enecarboxylic acid (4-{2-[4-(3-chloro-4-methylphenyl)piperazin-1-yl]ethyl}cyclohexyl) amide], the melting point was found to be 197 °C. Consider `Cc1ccc(N2CCN(CC[C@H]3CC[C@H](NC(=O)CC(F)(F)F)CC3)CC2)cc1Cl` [Example 492, N-(4-{2-[4-(3-Chloro-4-methylphenyl)piperazin-1-yl]ethyl}cyclohexyl)-3,3,3-trifluoropropanamide], for which the melting point came to 192 °C.

The compound `Cc1ccc(N2CCN(CC[C@H]3CC[C@H](NC(=O)CC(F)(F)F)CC3)CC2)cc1` [Example 493, 3,3,3-Trifluoro-N-{4-[2-(4-p-tolylpiperazin-1-yl)ethyl]cyclohexyl}propanamide] registered a melting point of 217 °C. `O=C(N[C@H]1CC[C@H](CCN2CCN(c3ccc(F)cc3F)CC2)CC1)C1CC=CC1` [Example 494, Cyclopent-3-enecarboxylic acid (4-{2-[4-(2,4-difluorophenyl)-piperazin-1-yl]ethyl}cyclohexyl) amide] displayed a melting point of 199 °C. The result for `CC(=O)CN1CCC(CCN2CCN(c3ccc(Cl)c(Cl)c3)CC2)CC1` [Example 495, 1-(4-{2-[4-(3,4-Dichlorophenyl)-piperazin-1-yl]ethyl}piperidin-1-yl)propan-2-one] reads 114 °C.

In turn, `O=C(N[C@H]1CC[C@H](CCN2CCN(c3cccc(C(F)(F)F)c3F)CC2)CC1)C1=COCC1` [Example 497, 4,5-Dihydrofuran-3-carboxylic acid (4-{2-[4-(2-fluoro-3-trifluoromethylphenyl)piperazin-1-yl]ethyl}cyclohexyl) amide] displayed a melting point of 192 °C. The result for `O=C(N[C@H]1CC[C@H](CCN2CCN(c3cccc(C(F)(F)F)c3F)CC2)CC1)[C@@H]1CCCN1` [Example 501, Pyrrolidine-2-carboxylic acid (4-{2-[4-(2-fluoro-3-trifluoro-methylphenyl)piperazin-1-yl]ethyl}cyclohexyl) amide] reads 140 °C. Compound `COCCCC(=O)N[C@H]1CC[C@H](CCN2CCN(c3ccc(Cl)c(Cl)c3)CC2)CC1` [Example 502, N-(4-{2-[4-(3,4-Dichlorophenyl)piperazin-1-yl]ethyl}cyclohexyl)-4-methoxybutanamide] displayed a melting point of 175 °C.

Turning to `CCOCC(=O)N[C@H]1CC[C@H](CCN2CCN(c3ccc(F)cc3F)CC2)CC1` [Example 503, N-(4-{2-[4-(2,4-Difluorophenyl)piperazin-1-yl]ethyl}cyclohexyl)-2-ethoxyacetamide], the melting point was 130 °C. With `COCCCC(=O)N[C@H]1CC[C@H](CCN2CCN(c3ccc(F)cc3F)CC2)CC1` [Example 504, N-(4-{2-[4-(2,4-Difluorophenyl)piperazin-1-yl]ethyl}cyclohexyl)-4-methoxybutanamide], the melting point worked out at 185 °C. As for `Cc1ccc(N2CCN(CC[C@H]3CC[C@H](NC(=O)CCCC#N)CC3)CC2)cc1C` [Example 505, 4-Cyano-N-(4-{2-[4-(3,4-dimethylphenyl)piperazin-1-yl]ethyl}cyclohexyl)butanamide], the melting point is 172 °C. In turn, `COCCCC(=O)N[C@H]1CC[C@H](CCN2CCN(c3ccc(C)c(C)c3)CC2)CC1` [Example 506, N-(4-{2-[4-(3,4-Dimethylphenyl)piperazin-1-yl]ethyl}cyclohexyl)-4-methoxybutanamide] gave a melting point of 161 °C.

`Cc1ccc(N2CCN(CC[C@H]3CC[C@H](NC(=O)C4=CCCC4)CC3)CC2)cc1C` [Example 507, Cyclopent-1-enecarboxylic acid (4-{2-[4-(3,4-dimethylphenyl)-piperazin-1-yl]ethyl}cyclohexyl) amide] came in with a melting point of 201 °C. Take `CCOCC(=O)N[C@H]1CC[C@H](CCN2CCN(c3ccc(C)c(C)c3)CC2)CC1` [Example 508, N-(4-{2-[4-(3,4-Dimethylphenyl)piperazin-1-yl]ethyl}cyclohexyl)-2-ethoxyacetamide]: the melting point worked out at 122 °C. The result for `Cc1ccc(N2CCN(CC[C@H]3CC[C@H](NC(=O)CC(F)(F)F)CC3)CC2)cc1C` [Example 509, N-(4-{2-[4-(3,4-Dimethylphenyl)piperazin-1-yl]ethyl}cyclohexyl)-3,3,3-trifluoropropanamide] reads 199 °C. For the compound `N#CCCCC(=O)N[C@H]1CC[C@H](CCN2CCN(c3ccc4c(c3)CCCC4)CC2)CC1` [Example 510, 4-Cyano-N-(4-{2-[4-(5,6,7,8-tetrahydronaphthalen-2-yl)piperazin-1-yl]ethyl}cyclohexyl)butanamide], the melting point is 170 °C. With `N#Cc1cccc(N2CCN(CC[C@H]3CC[C@H](NC(=O)CC(F)(F)F)CC3)CC2)c1` [Example 511, N-(4-{2-[4-(3-Cyanophenyl)piperazin-1-yl]ethyl}cyclohexyl)-3,3,3-trifluoropropanamide] the figure was 180 °C; with `N#Cc1cccc(N2CCN(CC[C@H]3CC[C@H](NC(=O)C4=CCCC4)CC3)CC2)c1` [Example 512, Cyclopent-1-enecarboxylic acid (4-{2-[4-(3-cyanophenyl)-piperazin-1-yl]ethyl}cyclohexyl) amide], 191 °C. Turning to `COCCCC(=O)N[C@H]1CC[C@H](CCN2CCN(c3cccc(C#N)c3)CC2)CC1` [Example 513, N-(4-{2-[4-(3-Cyanophenyl)-piperazin-1-yl]ethyl}cyclohexyl)-4-methoxybutanamide], the melting point stood at 168 °C. The result for `CCOCC(=O)N[C@H]1CC[C@H](CCN2CCN(c3cc(C(F)(F)F)ccc3F)CC2)CC1` [Example 514, 2-Ethoxy-N-(4-{2-[4-(2-fluoro-5-trifluoromethylphenyl)piperazin-1-yl]ethyl}cyclohexyl)acetamide] reads 128 °C; that for `CCOCC(=O)N[C@H]1CC[C@H](CCN2CCN(c3ccc(Cl)cc3)CC2)CC1` [Example 515, N-(4-{2-[4-(4-Chloro-phenyl)piperazin-1-yl]ethyl}-cyclohexyl)-2-ethoxyacetamide], 154 °C.

`CCCOCC(=O)N[C@H]1CC[C@H](CCN2CCN(c3cccc(C(F)(F)F)c3F)CC2)CC1` [Example 516, N-(4-{2-[4-(2-Fluoro-3-trifluoromethylphenyl)piperazin-1-yl]ethyl}cyclohexyl)-2-propoxyacetamide]: the melting point is 102 °C. For the compound `O=C(N[C@H]1CC[C@H](CCN2CCN(c3ccc(Cl)cc3F)CC2)CC1)C1=CCCC1` [Example 517, Cyclopent-1-enecarboxylic acid (4-{2-[4-(4-chloro-2-fluorophenyl)piperazin-1-yl]ethyl}cyclohexyl) amide], the melting point was 216 °C. In turn, `Cc1ccc(N2CCN(CC[C@H]3CC[C@H](NC(=O)C4=CCCC4)CC3)CC2)c(F)c1` [Example 518, Cyclopent-1-enecarboxylic acid (4-{2-[4-(2-fluoro-4-methylphenyl)piperazin-1-yl]ethyl}cyclohexyl) amide] showed a melting point of 202 °C. In turn, `N#CCC(=O)N[C@H]1CC[C@H](CCN2CCN(c3ccc(Cl)c(Cl)c3F)CC2)CC1` [Example 519, 2-Cyano-N-(4-{2-[4-(3,4-dichloro-2-fluorophenyl)piperazin-1-yl]ethyl}cyclohexyl)acetamide] came in with a melting point of 237 °C.

`N#CCCCC(=O)N[C@H]1CC[C@H](CCN2CCN(c3ccc(Cl)c(Cl)c3F)CC2)CC1` [Example 520, 4-Cyano-N-(4-{2-[4-(3,4-dichloro-2-fluorophenyl)piperazin-1-yl]ethyl}cyclohexyl)butanamide] had a melting point of 199 °C. The result for `CCOCC(=O)N[C@H]1CC[C@H](CCN2CCN(c3cc(Cl)ccc3Cl)CC2)CC1` [Example 521, N-(4-{2-[4-(2,5-Dichlorophenyl)-piperazin-1-yl]ethyl}cyclohexyl)-2-ethoxyacetamide] reads 128 °C; that for `N#CCCCC(=O)N[C@H]1CC[C@H](CCN2CCN(c3cccc(F)c3C#N)CC2)CC1` [Example 522, 4-Cyano-N-(4-{2-[4-(2-cyano-3-fluorophenyl)piperazin-1-yl]ethyl}cyclohexyl)butanamide], 175 °C. The result for `O=C(N[C@H]1CC[C@H](CCN2CCN(c3cc(F)c(F)cc3F)CC2)CC1)C1=CCCC1` [Example 523, Cyclopent-1-enecarboxylic acid (4-{2-[4-(2,4,5-trifluorophenyl)piperazin-1-yl]ethyl}cyclohexyl) amide] reads 199 °C; that for `N#Cc1cccc(N2CCN(CC[C@H]3CC[C@H](NC(=O)C4=COCC4)CC3)CC2)c1` [Example 524, 4,5-Dihydrofuran-3-carboxylic acid (4-{2-[4-(3-cyanophenyl)piperazin-1-yl]ethyl}cyclohexyl) amide], 165 °C.

`O=C(N[C@H]1CC[C@H](CCN2CCN(c3cc(Cl)ccc3F)CC2)CC1)C1=CCCC1` [Example 525, Cyclopent-1-enecarboxylic acid (4-{2-[4-(5-chloro-2-fluorophenyl)piperazin-1-yl]ethyl}cyclohexyl) amide] registered a melting point of 198 °C.

Turning to `N#CCCCC(=O)N[C@H]1CC[C@H](CCN2CCN(c3cccc(-c4ncco4)c3)CC2)CC1` [Example 526, 4-Cyano-N-(4-{2-[4-(3-oxazol-2-ylphenyl)piperazin-1-yl]ethyl}cyclohexyl)butanamide], the melting point was 192 °C. On to `O=C(N[C@H]1CC[C@H](CCN2CCN(c3ccc(F)cc3F)CC2)CC1)C1=COCC1` [Example 527, 4,5-Dihydrofuran-3-carboxylic acid (4-{2-[4-(2,4-difluorophenyl)piperazin-1-yl]ethyl}cyclohexyl) amide], for which the melting point stood at 192 °C. `N#CCC(=O)N[C@H]1CC[C@H](CCN2CCN(c3cc(Cl)cc(C(F)(F)F)c3)CC2)CC1` [Example 528, N-(4-{2-[4-(3-Chloro-5-trifluoromethylphenyl)piperazin-1-yl]ethyl}cyclohexyl)-2-cyanoacetamide] registered a melting point of 172 °C. Consider `N#CCCCC(=O)N[C@H]1CC[C@H](CCN2CCN(c3cc(Cl)cc(C(F)(F)F)c3)CC2)CC1` [Example 529, N-(4-{2-[4-(3-Chloro-5-trifluoromethylphenyl)piperazin-1-yl]ethyl}cyclohexyl)-4-cyanobutanamide], for which the melting point was 152 °C.

As a reminder, the melting point is the temperature, or range, at which the solid turns liquid.

Source of the values: patent publication US8802678B2, “Carbonylated (aza) cyclohexanes as dopamine D3 receptor ligands” (Bioprojet, priority 2006, dated 2014).
